According to patent publication US20250188057A1, “NON-AROMATIC CYCLIC-PYRIMIDINE ANALOGS AS GLUCOSYLCERAMIDE SYNTHASE INHIBITORS” (Merck Sharp & Dohme LLC, priority 2022, published 2025):
pIC50: −log10 of the molar value.

Target: glucosylceramide synthase (GCS) (Homo sapiens (Human), UniProt Q16739)
Test: UDP-Glo glucosylceramide synthase biochemical assay
Details: endogenous GCS in Golgi preparations isolated from human A375 malignant melanoma skin cells; UDP detection by luminescence
Text: A UDP-Glo™ glucosylceramide synthase biochemical assay was utilized to evaluate the effect of test compounds on the activity of endogenous levels of GCS enzyme contained within Golgi preparations isolated from human A375 malignant melanoma skin cells. The UDP-Glo™ glucosylceramide synthase assay uses UDP-Glucose as a nucleotide-glycosyl donor and ceramide as substrate acceptor molecules. In the reaction, glucosylceramide synthase (GCS) transfers glucose from UDP-Glucose to ceramide. Glucosylceramide and UDP are released as products.
Using Promega's UDP-Glo™ Glycosyltransferase assay kit (Promega Corporation, Madison, WI, USA (Promega)), GCS activity was indirectly measured by detecting the amount of UDP produced. An aliquot of GCS enzyme (1.5 μg crude golgi preparation, total protein) and titrated test compound were aliquoted to each well and incubated for 30 minutes at room temperature. […] An equivalent volume of substrate mixture was then added to each well. Following a 20 h incubation at room temperature to allow for GCS turnover of substrate, an equal volume of UDP detection reagent (Promega) was added to each well and incubated for an additional 75 minutes at room temperature to simultaneously convert the accumulated UDP product into ATP and generate light in a luciferase reaction. The generated light was detected using a luminometer. […] luminescence values (RLUs) were normalized to mean “min” and “max” effects, as determined on each plate. “Min” was defined as the mean of the values of the wells treated with vehicle (DMSO) and which represent 0% inhibition; “max” was defined as the mean of the values of the wells treated with a reference inhibitor and which represent the 100% effect. Values for % Emax and EC50 were determined by best-fitting the normalized data to a curve in Activity Base along a four-parameter logistic nonlinear regression (4PL) model (based on the Levenberg-Marquardt algorithm and defined by the equation below): […]
where: n is 4PMin (bottom of the curve); m is 4PMax (top of the curve); i is IP (inflection point of curve); and p is slope. See Levenberg, K., “A Method for the Solution of Certain Problems in Least Squares”, Quart. Appl. Math. 2, (1944), pp 164-168 and Marquardt, D., “An Algorithm for Least Squares Estimation on Nonlinear Parameters”, SIAM J. Appl. Math 11, (1963) pp 431-441.

Chain of glucosylceramide synthase (GCS) (Q16739 whole entry): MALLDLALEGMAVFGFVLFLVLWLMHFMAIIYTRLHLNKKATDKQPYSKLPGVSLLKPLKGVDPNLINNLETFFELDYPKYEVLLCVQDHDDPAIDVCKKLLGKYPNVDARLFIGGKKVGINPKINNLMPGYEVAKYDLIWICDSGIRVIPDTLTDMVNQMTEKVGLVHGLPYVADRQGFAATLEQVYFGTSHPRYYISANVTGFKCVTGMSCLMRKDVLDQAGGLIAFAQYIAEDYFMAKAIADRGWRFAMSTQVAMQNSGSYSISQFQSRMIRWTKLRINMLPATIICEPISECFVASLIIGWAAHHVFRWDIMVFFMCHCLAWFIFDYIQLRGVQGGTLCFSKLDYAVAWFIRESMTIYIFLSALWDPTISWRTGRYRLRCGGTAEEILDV

Row | SMILES | pIC50
1 | CC(F)(F)c1ccnc(N2CC[C@H](COc3nc(C4CC4)ncc3C#N)C2)c1 [Compound 32, (S)-2-cyclopropyl-4-((1-(4-(1,1-difluoroethyl)pyridin-2-yl)pyrrolidin-3-yl)methoxy)pyrimidine-5-carbonitrile] | 5.48
2 | N#Cc1cnc(C2CC2)nc1OC[C@H]1CCN(c2cccc3ncccc23)C1 [Compound 34, (S)-2-cyclopropyl-4-((1-(quinolin-5-yl)pyrrolidin-3-yl)methoxy)pyrimidine-5-carbonitrile] | 5.69
3 | N#Cc1ccc(N2CC[C@H](COc3nc(C4CC4)ncc3C#N)C2)cc1F [Compound 35, (S)-4-((1-(4-cyano-3-fluorophenyl)pyrrolidin-3-yl)methoxy)-2-cyclopropylpyrimidine-5-carbonitirle] | 6.34
4 | N#Cc1cnc(C2CC2)nc1OC[C@@H]1CCN(c2cc(F)ncc2Cl)C1 [Compound 37, (R)-4-((1-(5-chloro-2-fluoropyridin-4-yl)pyrrolidin-3-yl)methoxy)-2 cyclopropylpyrimidine-5-carbonitrile] | 5.45
5 | COc1cc(N2CC[C@@H](COc3nc(C4CC4)ncc3C#N)C2)c(F)cn1 [Compound 38, (R)-2-cyclopropyl-4-((1-(5-fluoro-2-methoxypyridin-4-yl)pyrrolidin-3-yl)methoxy)pyrimidine-5-carbonitrile] | 5.53
6 | N#Cc1cnc(C2CC2)nc1OC[C@H]1CCN(c2csc3c(Cl)ncnc23)C1 [Compound 39, (S)-4-((1-(4-chlorothieno[3,2-d]pyrimidin-7-yl)pyrrolidin-3-yl)methoxy)-2-cyclopropylpyrimidine-5-carbonitrile] | 5.40
7 | Cc1nc(-c2ccc(N3CC[C@H](COc4nc(C5CC5)ncc4C#N)C3)cc2)co1 [Compound 40, (S)-2-cyclopropyl-4-((1-(4-(2-methyloxazol-4-yl)phenyl)pyrrolidin-3-yl)methoxy)pyrimidine-5-carbonitrile] | 7.54
8 | N#Cc1cnc(C2CC2)nc1OC[C@H]1CCN(c2ncc(C(F)(F)F)cn2)C1 [Compound 42, (S)-2-cyclopropyl-4-((1-(5-(trifluoromethyl)pyrimidin-2-yl)pyrrolidin-3-yl)methoxy)pyrimidine-5-carbonitrile] | 7.21
9 | N#Cc1cnc(C2CC2)nc1OC[C@H]1CCN(c2ccc(C(F)(F)F)nc2)C1 [Compound 44, (S)-2-cyclopropyl-4-((1-(6-(trifluoromethyl)pyridin-3-yl)pyrrolidin-3-yl)methoxy)pyrimidine-5-carbonitrile] | 6.85
10 | N#Cc1cnc(C2CC2)nc1OC[C@H]1CCN(c2ccnc(OC3CC3)c2)C1 [Compound 47, (S)-4-((1-(2-cyclopropoxypyridin-4-yl)pyrrolidin-3-yl)methoxy)-2-cyclopropylpyrimidine-5-carbonitrile] | 5.51
11 | N#Cc1cnc(C2CC2)nc1NC[C@H]1CCN(c2ccc(-n3cccn3)nc2)C1 [Compound 48, (R)-4-(((1-(6-(1H-pyrazol-1-yl)pyridin-3-yl)pyrrolidin-3-yl)methyl)amino)-2-cyclopropylpyimidine-5-carbonitrile] | 6.01
12 | CN(C[C@H]1CCN(c2ccc(-n3cccn3)nc2)C1)c1nc(C2CC2)ncc1C#N [Compound 49, (S)-4-(((1-(6-(1H-pyrazol-1-yl)pyridin-3-yl)pyrrolidin-3-yl)methyl)(methyl)amino)-2-cyclopropylpyrimidine-5-carbonitrile] | 5.73
13 | N#Cc1cnc(C2CC2)nc1OCC12CC1CN(c1ncc(C(F)(F)F)cn1)C2 (stereo not shown) [Compound 51, 2-cyclopropyl-4-((3-(5-(trifluoromethyl)pyrimidin-2-yl)-3-azabicyclo[3.1.0]hexan-1-yl)methoxy)pyrimidine-5-carbonitrile] | 7.05
14 | CC1(COc2nc(C3CC3)ncc2C#N)CCN(c2ncc(C(F)(F)F)cn2)C1 (stereo not shown) [Compound 52, 2-cyclopropyl-4-((3-methyl-1-(5-(trifluoromethyl)pyrimidin-2-yl)pyrrolidin-3-yl)methoxy)pyrimidine-5-carbonitrile] | 6.12
15 | CC1CN(c2ncc(C(F)(F)F)cn2)CC1COc1nc(C2CC2)ncc1C#N (stereo not shown) [Compound 53, 2-cyclopropyl-4-((4-methyl-1-(5-(trifluoromethyl)pyrimidin-2-yl)pyrrolidin-3-yl)methoxy)pyrimidine-5-carbonitrile] | 6.83
16 | N#Cc1cnc(C2CC2)nc1OCC12CC(C1)N(c1ncc(C(F)(F)F)cn1)C2 [Compound 54, 2-cyclopropyl-4-((2-(5-(trifluoromethyl)pyrimidin-2-yl)-2-azabicyclo[2.1.1]hexan-4-yl)methoxy)pyrimidine-5-carbonitrile] | 6.97
17 | N#Cc1cnc(C2CC2)nc1OC[C@H]1CCN(c2ccc(-n3cccn3)nc2)C1 [Compound 55, (S)-4-((1-(6-(1H-pyrazol-1-yl)pyridin-3-yl)pyrrolidin-3-yl)methoxy)-2-cyclopropylpyrimidine-5-carbonitrile] | 7.11
18 | N#Cc1cnc(C2CC2)nc1OCC1CCN(c2ccc(Cl)cc2)C1 (stereo not shown) [Compound 58, 4-((1-(4-chlorophenyl)pyrrolidin-3-yl)methoxy)-2-cyclopropylpyrimidine-5-carbonitrile] | 6.81
19 | N#Cc1cnc(C2CC2)nc1OCC1CCCN1c1ccccc1 (stereo not shown) [Compound 59, 2-cyclopropyl-4-((1-phenylpyrrolidin-2-yl)methoxy)pyrimidine-5-carbonitrile] | 6.44
20 | N#Cc1cnc(C2CC2)nc1OC[C@@H]1C[C@H]1c1ccc(F)cn1 [Compound 62, 2-cyclopropyl-4-(((1R,2R)-2-(5-fluoropyridin-2-yl)cyclopropyl)methoxy)pyrimidine-5-carbonitrile] | 6.01

More lines, in order of rising pIC50, values ahead:

Row | pIC50 | SMILES
21 | 5.38 | N#Cc1cnc(C2CC2)nc1OC[C@H]1CCN(c2cc(C(F)(F)F)ccn2)C1 [Compound 46, (S)-2-cyclopropyl-4-((1-(4-(trifluoromethyl)pyridin-2-yl)pyrrolidin-3-yl)methoxy)pyrimdiine-5-carbonitrile]
22 | 5.40 | N#Cc1cnc(C2CC2)nc1OC1CN(Cc2ccc(F)cc2)C1 [Compound 60, 2-cyclopropyl-4-((1-(4-fluorobenzyl)azetidin-3-yl)oxy)pyrimidine-5-carbonitrile]
23 | 5.59 | N#Cc1cnc(C2CC2)nc1OC[C@H]1CCN(c2cc(F)ncc2Cl)C1 [Compound 36, (S)-4-((1-(5-chloro-2-fluoropyridin-4-yl)pyrrolidin-3-yl)methoxy)-2-cyclopropylpyrimidine-5-carbonitrile]
24 | 5.85 | N#Cc1cnc(C2CC2)nc1OC[C@H]1CCN(c2cccc3cnccc23)C1 [Compound 33, (S)-2-cyclopropyl-4-((1-(isoquinolin-5-yl)pyrrolidin-3-yl)methoxy)pyrimidine-5-carbonitrile]
25 | 5.99 | N#Cc1cnc(C2CC2)nc1OC[C@H]1C[C@@H]1c1ccc(F)cn1 [Compound 61, 2-cyclopropyl-4-(((1S,2S)-2-(5-fluoropyridin-2-yl)cyclopropyl)methoxy)pyrimidine-5-carbonitrile]
26 | 6.59 | N#Cc1cnc(C2CC2)nc1OC[C@@H]1CCN(c2ccc(C(F)(F)F)nc2)C1 [Compound 45, (R)-2-cyclopropyl-4-((1-(6-(trifluoromethyl)pyridin-3-yl)pyrrolidin-3-yl)methoxy)pyrimidine-5-carbonitrile]
27 | 6.79 | N#Cc1cnc(C2CC2)nc1OC[C@H]1CCN(c2cnc(-n3cccn3)cn2)C1 [Compound 56, (S)-4-((1-(5-(1H-pyrazol-1-yl)pyrazin-2-yl)pyrrolidin-3-yl)methoxy)-2-cyclopropylpyrimidine-5-carbonitrile]
28 | 7.09 | CC(Oc1nc(C2CC2)ncc1C#N)[C@H]1CCN(c2ncc(C(F)(F)F)cn2)C1 (stereo partly drawn) [Compound 50, 2-cyclopropyl-4-(1-((S)-1-(5-(trifluoromethyl)pyrimidin-2-yl)pyrrolidin-3-yl)ethoxy)pyrimidine-5-carbonitrile]
29 | 7.40 | N#Cc1cnc(C2CC2)nc1OC[C@H]1CCN(c2ccc(C(F)(F)F)cn2)C1 [Compound 43, (S)-2-cyclopropyl-4-((1-(5-(trifluoromethyl)pyridin-2-yl)pyrrolidin-3-yl)methoxy)pyrimidine-5-carbonitrile]
30 | 7.70 | N#Cc1cnc(C2CC2)nc1OCC1CCN(c2ccc(Cl)cc2)C1 (stereo not shown) [Compound 57, 4-((1-(4-chlorophenyl)pyrrolidin-3-yl)methoxy)-2-cyclopropylpyrimidine-5-carbonitrile]
31 | 8.07 | COc1ccc2c(c1)C(Nc1nc(C3CC3)ncc1C#N)CC2 (stereo not shown) [Compound 63, 2-cyclopropyl-4-((6-methoxy-2,3-dihydro-1H-inden-1-yl)amino)pyrimidine-5-carbonitrile]
